In paper PMC7797213, “Vascular effects of serelaxin in patients with stable coronary artery disease: a randomized placebo-controlled trial” (Cardiovascular Research, 2020):

Legend:
Format in all cases: in vivo, human
[1] = test system: patients with stable coronary artery disease; test: Adverse events and serious adverse events
Protocol: All adverse events (AEs) were recorded along with investigator-reported seriousness, intensity, and relationship to study drug.

[2] = Immunogenicity: serum anti-serelaxin antibodies; details: Day 1 (baseline) and Day 30, all patients
Protocol: Blood was collected on Day 1 (baseline) and post-dose on Day 30 for assessment of immunogenicity. Serum anti-serelaxin antibody concentrations were evaluated using a validated four-tiered assay approach for antibody screening, confirmation, titration, and neutralizing antibody detection, when applicable.

[3] = test system: patients with stable coronary artery disease; test: Adenosine stress perfusion CMR: myocardial blood flow and myocardial perfusion reserve
Protocol: (30 μg/kg/day) or matching placebo, using a computerized randomization system involving concealed treatment arms. The co-primary endpoints were the change from baseline in global myocardial perfusion reserve (MPR) measured by quantitative perfusion cardiac magnetic resonance (CMR) imaging and the change from baseline in augmentation index (AIx) measured by applanation tonometry. The primary endpoints of MPR and AIx were assessed at baseline and 47 h post-commencement of the infusion (Figure 1).
A standardized CMR protocol was acquired on 1.5 T (Siemens Avanto) or 3.0 T (Siemens Skyra and Verio) magnetic resonance imaging (MRI) scanners. The CMR protocol included standard localizers, long- and short-axis cine acquisitions, stress and rest first-pass perfusion, and late gadolinium enhancement (LGE) imaging as previously described.[24] For perfusion imaging, a saturation recovery prepared fast gradient echo sequence was used to acquire dynamic contrast-enhanced CMR during adenosine stress (140–280 µg/kg/min for 3 min) and rest, during first-pass of the IV administered contrast agent (Gadovist, 0.05 mmol/kg, 5 mL/s), followed by 20 mL saline injection (5 mL/s). Three short-axis planes through the left ventricle (basal, mid-ventricular, and apical) were obtained.
(§1) CMR image collection, blinding, and handling were managed by an independent imaging contract-research organization (CRO; VirtualScopics, Inc., Rochester, NY, USA). The CMR quantitative analyses were performed by blinded academic readers with >3 years of CMR experience (D.C., A.R., and C.B.). Cine images for ventricular volumes and mass and myocardial perfusion images were manually contoured (QMass, Medis, Leiden, Netherlands). Myocardial blood flow (MBF) was derived from stress and rest perfusion images using a Fermi deconvolution method,[25] implemented in MATLAB.[26] Global MPR was calculated from the ratio of global MBF evaluated at stress and at rest (MPR = stress MBF/rest MBF). Global MBF was calculated by averaging the MBF (mL/g/min) for basal, mid, and apical short-axis left ventricular slices. Ascending and descending aortic strain and distensibility were derived from manually contoured end-diastolic and end-systolic aortic cine images. Aortic strain (AS, unit free fraction) = [maximum aortic lumen area − minimum aortic lumen area]/minimum aortic lumen area. Aortic distensibility (AD, mmHg^−^1) = aortic strain/pulse pressure. Ascending aortic peak flow velocity (m/s) was derived from manually contoured phase-velocity encoding sequence images (QFlow, Medis, Leiden, Netherlands). The presence or absence of myocardial scar was qualitatively assessed on the LGE images.

[4] = test system: patients with stable coronary artery disease; test: Aortic MRI measurements of arterial stiffness (strain, distensibility, peak flow velocity); details: for Ascending aorta distensibility / Ascending aorta strain / Descending aorta distensibility / Descending aorta strain / Peak flow velocity: mean ± SD
Protocol: Full left ventricular short-axis stack of cine images was acquired during the interval between stress and rest first-pass perfusion acquisitions. Following administration of the top-up contrast dose (Gadovist 0.05 mmol/kg), aortic cine and phase-velocity encoding sequences were acquired at the level of the pulmonary artery bifurcation. LGE imaging was performed with a segmented phase-sensitive inversion recovery sequence.
as §1
Model: Change from baseline was analysed using ANCOVA model including treatment as fixed effect and baseline as continuous covariate.

[5] = 0 h (pre-dose baseline), mean ± SD, n=22
[6] = 0 h (pre-dose baseline), mean ± SD, n=24
[7] = 47 h post dose, mean ± SD, n=23
[8] = 47 h post dose, mean ± SD, n=24
[9] = Bayesian, criterion 1: increase between serelaxin and placebo greater than zero
[10] = Bayesian, criterion 2: increase between serelaxin and placebo greater than 20%
[11] = baseline to 47 h, 48 h IV infusion 30 µg/kg/day, ANCOVA, n=22
[12] = baseline to day 3, Bayesian analysis
[13] = baseline to day 3, Bayesian analysis, non-informative priors, n=22
[14] = change baseline to 47 h, ANCOVA
[15] = baseline to day 3, ANCOVA, n=23

Serelaxin
Patients discontinuing the study due to hypotensive events ([1]; in vivo): No patient | AEs considered causally related to serelaxin ([1]; investigator-reported relationship): None | Angina pectoris (AE by preferred term) ([1]; safety set n=30): 1 (3) n (%) | Angina unstable (AE by preferred term) ([1]; safety set n=30): 1 (3) n (%) | Blood creatinine increased (AE by preferred term) ([1]; safety set n=30): 1 (3) n (%) | Dizziness (AE by preferred term) ([1]; safety set n=30): 2 (7) n (%) | Dyspnoea (AE by preferred term) ([1]; safety set n=30): 2 (7) n (%) | Haematocrit decreased (AE by preferred term) ([1]; safety set n=30): 1 (3) n (%) | Haemoglobin decreased (AE by preferred term) ([1]; safety set n=30): 2 (7) n (%) | Headache (AE by preferred term) ([1]; safety set n=30): 2 (7) n (%) | Musculoskeletal pain (AE by preferred term) ([1]; safety set n=30): 2 (7) n (%) | Presyncope (AE by preferred term) ([1]; safety set n=30): 0 (0) n (%) | Subjects with at least one AE ([1]; safety set n=30, 48 h IV infusion 30 µg/kg/day, follow-up to Day 180): 17 (57) n (%) | Deaths ([1]; study period to Day 180): No deaths | Anti-serelaxin antibody status [2]: anti-serelaxin antibody negative | Apical MBF rest, absolute value [3, 5]: 1.41 ± 0.43 (22) mL/g/min | Apical perfusion reserve index, absolute value [3, 5]: 2.24 ± 0.89 (22) | Basal MBF rest, absolute value [3, 5]: 1.16 ± 0.39 (22) mL/g/min | Basal perfusion reserve index, absolute value [3, 5]: 2.25 ± 0.92 (22) | Global MPR, absolute value [3, 5]: 2.25 ± 0.88 (22) | Mean global MBF rest, absolute value [3, 5]: 1.26 ± 0.37 (22) mL/g/min | Mid MBF rest, absolute value [3, 5]: 1.22 ± 0.37 (22) mL/g/min | Mid perfusion reserve index, absolute value [3, 5]: 2.24 ± 0.98 (22) | Apical MBF stress, absolute value [3, 6]: 2.82 ± 1.00 (24) mL/g/min | Basal MBF stress, absolute value [3, 6]: 2.34 ± 0.90 (24) mL/g/min | Mean global MBF stress, absolute value [3, 6]: 2.54 ± 0.87 (24) mL/g/min | Mid MBF stress, absolute value [3, 6]: 2.45 ± 0.84 (24) mL/g/min | Apical MBF stress, absolute value [3, 7]: 2.66 ± 0.73 (23) mL/g/min | Apical perfusion reserve index, absolute value [3, 7]: 2.01 ± 0.60 (23) | Basal MBF stress, absolute value [3, 7]: 2.14 ± 0.84 (23) mL/g/min | Global MPR, absolute value [3, 7]: 1.98 ± 0.59 (23) | Mean global MBF stress, absolute value [3, 7]: 2.32 ± 0.67 (23) mL/g/min | Mid MBF stress, absolute value [3, 7]: 2.16 ± 0.70 (23) mL/g/min | Mid perfusion reserve index, absolute value [3, 7]: 1.93 ± 0.70 (23) | Apical MBF rest, absolute value [3, 8]: 1.41 ± 0.34 (24) mL/g/min | Basal MBF rest, absolute value [3, 8]: 1.13 ± 0.39 (24) mL/g/min | Mean global MBF rest, absolute value [3, 8]: 1.24 ± 0.32 (24) mL/g/min | Mid MBF rest, absolute value [3, 8]: 1.17 ± 0.31 (24) mL/g/min | Mean global MBF rest, probability of success Pr (Criterion 1|data) [3, 9]: 0.80 | Mean global MBF stress, probability of success Pr (Criterion 1|data) [3, 9]: 0.38 | Global MPR, probability of success Pr (Criterion 1|data) ([3]; Bayesian, criterion 1: increase in MPRI between serelaxin and placebo greater than zero): 0.22 | Mean global MBF rest, probability of success Pr (Criterion 2|data) [3, 10]: 0.0014 | Mean global MBF stress, probability of success Pr (Criterion 2|data) [3, 10]: 0.0006 | Global MPR, probability of success Pr (Criterion 2|data) ([3]; Bayesian, criterion 2: increase in MPRI between serelaxin and placebo greater than 20%): 0.0002 | Global MPR, change from baseline (adjusted mean) [3, 11]: -0.24 | Mean global MBF rest, change from baseline (adjusted mean) [3, 11]: 0.01 mL/g/min | Mid MBF rest, change from baseline (adjusted mean) ([3]; baseline to 47 h, ANCOVA, n=22): -0.01 mL/g/min | Mid perfusion reserve index, change from baseline (adjusted mean) ([3]; baseline to 47 h, ANCOVA, n=22): -0.26 | Mid MBF stress, change from baseline (adjusted mean) ([3]; baseline to 47 h, ANCOVA, n=23): -0.27 mL/g/min | Mean global MBF stress, change from baseline (adjusted mean) ([3]; baseline to 47 h, adenosine stress, 48 h IV infusion 30 µg/kg/day, ANCOVA, n=23): -0.22 mL/g/min | Global MPR, estimate of difference (serelaxin vs placebo), posterior median [3, 12]: -0.11 | Mean global MBF rest, estimate of difference (serelaxin vs placebo), posterior median [3, 12]: 0.05 mL/g/min | Mean global MBF stress, estimate of difference (serelaxin vs placebo), posterior median [3, 12]: -0.05 mL/g/min | Global MPR, change from baseline, within treatment posterior median [3, 13]: -0.25 | Mean global MBF rest, change from baseline, within treatment posterior median [3, 13]: 0.01 mL/g/min | Mean global MBF stress, change from baseline, within treatment posterior median ([3]; baseline to day 3, Bayesian analysis, non-informative priors, n=23): -0.22 mL/g/min | Mean global MBF rest, adjusted mean difference serelaxin versus placebo ([3]; change baseline to 47 h, 48 h IV infusion 30 µg/kg/day, ANCOVA): 0.05 mL/g/min | Global MPR, adjusted mean difference serelaxin versus placebo [3, 14]: -0.11 | Mid MBF rest, adjusted mean difference serelaxin versus placebo [3, 14]: 0.06 mL/g/min | Mid MBF stress, adjusted mean difference serelaxin versus placebo [3, 14]: -0.11 mL/g/min | Mid perfusion reserve index, adjusted mean difference serelaxin versus placebo [3, 14]: -0.19 | Mean global MBF stress, adjusted mean difference serelaxin versus placebo ([3]; change baseline to 47 h, adenosine stress, ANCOVA): -0.05 mL/g/min | Ascending aorta distensibility ([4]; 0 h (pre-dose baseline), n=24): 0.002 ± 0.002 (24) mm/Hg | Ascending aorta strain ([4]; 0 h (pre-dose baseline), n=24): 0.12 ± 0.06 (24) | Descending aorta distensibility ([4]; 0 h (pre-dose baseline), n=24): 0.002 ± 0.001 (24) mm/Hg | Descending aorta strain ([4]; 0 h (pre-dose baseline), n=24): 0.16 ± 0.06 (24) | Peak flow velocity ([4]; 0 h (pre-dose baseline), n=24): 128.00 ± 66.69 (24) cm/sec | Ascending aorta distensibility ([4]; 47 h post-dose, n=23): 0.002 ± 0.001 (23) mm/Hg | Ascending aorta strain ([4]; 47 h post-dose, n=23): 0.12 ± 0.06 (23) | Descending aorta distensibility ([4]; 47 h post-dose, n=23): 0.002 ± 0.001 (23) mm/Hg | Descending aorta strain ([4]; 47 h post-dose, n=23): 0.17 ± 0.05 (23) | Peak flow velocity ([4]; 47 h post-dose, n=23): 127.98 ± 60.76 (23) cm/sec | CMR-derived parameters of aortic stiffness, change from baseline to 47 h compared with placebo ([4]; ascending/descending aorta strain and distensibility, ascending aortic peak flow velocity, P > 0.05 for all): no significant change | Ascending aorta distensibility, adjusted mean difference serelaxin versus placebo ([4]; baseline to day 3, ANCOVA): -0.0001 mm/Hg | Ascending aorta strain, adjusted mean difference serelaxin versus placebo ([4]; baseline to day 3, ANCOVA): 0.01 | Descending aorta distensibility, adjusted mean difference serelaxin versus placebo ([4]; baseline to day 3, ANCOVA): -0.0001 mm/Hg | Descending aorta strain, adjusted mean difference serelaxin versus placebo ([4]; baseline to day 3, ANCOVA): 0.01 | Peak flow velocity, adjusted mean difference serelaxin versus placebo ([4]; baseline to day 3, ANCOVA): 13.71 cm/sec | Ascending aorta distensibility, change from baseline (adjusted mean) [4, 15]: -0.0001 mm/Hg | Ascending aorta strain, change from baseline (adjusted mean) [4, 15]: 0.01 | Descending aorta distensibility, change from baseline (adjusted mean) [4, 15]: 0.0001 mm/Hg | Descending aorta strain, change from baseline (adjusted mean) [4, 15]: 0.011 | Peak flow velocity, change from baseline (adjusted mean) [4, 15]: 10.12 cm/sec
